Structures can show the parent of a compound that is named as a salt.
Columns and labels:
[1] = tested on: ocular redness; test: Rabbit model of non-allergic (non-infectious) ocular redness induced by dapiprazole, Ocular Redness Index (ORI); assay type: in vivo
Excerpt: (§1) An Image J-based, objective quantification method of ocular redness severity was developed without relying on ophthalmologists' subjective scoring (Amparo, et al. “The Ocular Redness Index: A Novel Automated Method for Measuring Ocular Injection.” Investigative Ophthalmology & Visual Science, 2013, pp. Quick submit: 2017-06-18T21:14:33-0400). This digital scoring method automatically analyzes patient eye images and gives the score as Ocular Redness Index (ORI), which ranges on a continuous centesimal scale from 0 to 100, with 100 the most severe redness. This method has been used in the animal models of ocular redness to evaluate the severity of redness.
(§2) The results obtained can be seen in FIGS. 10-14. In the evaluation of ocular redness in animal models using Ocular Redness Index (ORI) with Image J the following steps. Step 1: The conjunctival image was captured by means of a digital camera and was recorded as an RGB color JPEG image (3264×2448 pixels). […] Step 3: An ROI (Region Of Interest, area inside the yellow circle) was selected as the evaluation area by user, and the program read the red-green-blue (RGB) values of each pixel, converting it to huesaturation-value (HSV) space, and ultimately converted these values into a numeric centesimal value for redness in the selected area automatically. […]

[2] = tested on: DED mice; test: Mouse model of DED, topical NK1R antagonist: corneal fluorescein staining (CFS); assay type: in vivo, C57BL/6 mice; conditions: topical 1 μg/μl three times per day, day 4 to 14; at day 7, 10 and 14; vs untreated and PBS-treated; p<0.05
Excerpt: FIGS. 6A, 6B, 7C, 8A-8C, and 9A-9D show the results of evaluating the in vivo therapeutic efficacy of blocking SP signaling in animal models of DED and ocular redness. DED was induced by exposing wild-type mice to desiccating stress using a controlled environment chamber for 14 days. No any other manipulations were used in the model. After 4 days induction, a clinical overt disease developed in mice (art-recognized model) and then a topical NK1R antagonist of either CP-99,994 or L-733,060, 3×/day, started and lasted for 10 days (until day 14). Untreated or PBS-treated mice serve as controls. Clinical severity of the disease was evaluated by clinical fluorescein scoring (CFS) using the National Eye Institute/Industry NEI grading scheme. […]
Induction of Dry Eye Disease (DED): DED was induced by housing the mice in a low-humidity (relative humidity: <20%) controlled environment chamber (CEC) with constant airflow of 15 L/min and temperature of 21 to 23° C. for 14 days. […] Corneal epithelial disease was evaluated using fluorescein (Sigma-Aldrich) staining and scored using the National Eye Institute grading system (NEI, Bethesda, Md.; Chen Y. et al. IFN-gamma-Expressing TH17 Cells Are Required for Development of Severe Ocular Surface Autoimmunity. J Immunol 2017, 199:1163-9). […]

[3] = tested on: IL-17; test: Mouse model of DED, topical NK1R antagonist: real-time PCR of conjunctivae; assay type: in vivo, C57BL/6 mice; conditions: topical 1 μg/μl three times per day; day 14; vs PBS; p=0.001
Protocol: Induction of Dry Eye Disease (DED): DED was induced by housing the mice in a low-humidity (relative humidity: <20%) controlled environment chamber (CEC) with constant airflow of 15 L/min and temperature of 21 to 23° C. for 14 days. Age- and sex-matched mice housed in room air conditions served as controls. Corneal epithelial disease was evaluated using fluorescein (Sigma-Aldrich) staining and scored using the National Eye Institute grading system (NEI, Bethesda, Md.; Chen Y. et al. IFN-gamma-Expressing TH17 Cells Are Required for Development of Severe Ocular Surface Autoimmunity. J Immunol 2017, 199:1163-9). […] Punctate staining was recorded in a masked fashion with the standard National Eye Institute grading system of 0-3 for each of the five areas of the cornea. […]
Real-Time PCR: Bulbar and palpebral conjunctiva, cornea and trigeminal ganglion were harvested from mice and stored in TRIzol reagent (Invitrogen, Carlsbad, Calif.) at −80° C. until RNA was isolated and reverse-transcribed using RNeasy micro kit (Qiagen, Valencia, Calif.) and SuperScript III kit (Invitrogen). […] Samples were analyzed using a real-time PCR system (LightCycler 480 II System; Roche Applied Science, Indianapolis, Ind.), and results were analyzed by the comparative threshold cycle method, using GAPDH as an internal control.

[4] = tested on: DED mice; test: Mouse model of DED, topical NK1R antagonist: flow cytometry of cornea, draining lymph nodes and conjunctivae; assay type: in vivo, C57BL/6 mice; conditions: topical 1 μg/μl three times per day, day 14; for frequencies of MHC-II^hi CD11b^+ cells in the cornea: day 4 to 14; for frequencies of TH17 cells in the DLNs / frequencies of mature MHC-II^hi CD11b^+ cells in the DLNs / level of MHC-II expression by CD11b^+ cells in the DLNs: vs PBS
Protocol: Induction of Dry Eye Disease (DED): DED was induced by housing the mice in a low-humidity (relative humidity: <20%) controlled environment chamber (CEC) with constant airflow of 15 L/min and temperature of 21 to 23° C. for 14 days. Age- and sex-matched mice housed in room air conditions served as controls. Corneal epithelial disease was evaluated using fluorescein (Sigma-Aldrich) staining and scored using the National Eye Institute grading system (NEI, Bethesda, Md.; Chen Y. et al. IFN-gamma-Expressing TH17 Cells Are Required for Development of Severe Ocular Surface Autoimmunity. J Immunol 2017, 199:1163-9). 1 μl of 2.5% fluorescein was applied into the lateral conjunctival sac of the mice and after 3 minutes corneas were examined with a slit lamp biomicroscope under cobalt blue light. Punctate staining was recorded in a masked fashion with the standard National Eye Institute grading system of 0-3 for each of the five areas of the cornea.
Topical Treatment with NK1R Antagonist: Mice were assigned to one of four groups (n=5 each). 1 μg/μl of NK1R antagonists CP-99,994, L-733,060 (R&D systems, Minneapolis, MN) or PBS was administered topically three times per day from day 4 to day 14 after DED induction. Untreated DED mice served as controls.
Single Cell Suspension Preparation and Flow Cytometry: Submandibular and cervical draining lymph nodes (DLNs) were harvested and single cell suspensions were prepared. Cells were stimulated with phorbol 12-myristate 13-acetate (PMA, 50 ng/mL; Sigma-Aldrich) and Ionomycin (500 ng/mL; Sigma-Aldrich) for 6 hours in the presence of a commercial protein transport inhibitor (0.7 μL/100 μL media, Golgistop; BD Biosciences, San Jose, Calif.). Conjunctivae were harvested by lifting at the junction of bulbar and palpebral conjunctiva and dissecting along both bulbar and palpebral insertion points (Vannas Scissors; Storz, Bausch & Lomb). Conjunctiva samples were cultured in RPMI (Thermo Fisher Scientific, Waltham, Mass.) supplemented with 10% fetal bovine serum (FBS) and stimulated with PMA (50 ng/mL; Sigma-Aldrich) and Ionomycin (500 ng/mL; Sigma-Aldrich) in the presence of a protein transport inhibitor (0.7 μL/100 μL media, Golgistop; BD Biosciences) at 37° C. for 24 hours. Harvested corneas were digested in RPMI media containing 2 mg/ml collagenase type IV (Sigma-Aldrich) and 2 mg/ml DNase I (Roche) for 1 h at 37° C. The suspension was then filtered through a 70-μm cell strainer. Single-cell suspensions of DLN and cornea were stained with the following antibodies: Brilliant Violet 421-conjugated anti-mouse I-A/I-E (MHC-II), PE-conjugated anti-CD11c (BD Pharmingen, San Jose, Calif.), PerCP/Cy5.5-conjugated anti-CD11b, FITC-conjugated anti-CD4 (BioLegend, San Diego, Calif.), and PE-conjugated anti-interleukin 17A (eBioscience, San Diego, Calif.). Intranuclear staining with PE/Cy7-conjugated anti-Foxp3 (eBioscience) was performed after fixation and permeabilization of cells. Control samples were stained with appropriate isotype-matched antibodies. Stained cells were examined using an LSRII Flow Cytometer (BD Biosciences, Franklin Lakes, N.J., USA), and data were analyzed using commercial Summit software (Summit v4.3; Dako Colorado, Inc., Fort Collins, Colo.).

[5] = prevents use as an eye drop formulation; cited from earlier work
[6] = tested on: ocular redness; test: Guinea pig model of allergic ocular redness induced by histamine, Ocular Redness Index (ORI); assay type: in vivo; conditions: topical 1.0 mg/ml with 1.5 mg/ml histamine instillation, 20 μl; 1 hour; vs untreated induced control
Excerpt: as §1, §2

[7] = tested on: corneal epithelial wound healing; conditions: subconjunctival injection, diabetic mice; cited from earlier work

Structure (SMILES) | CFS scores and DED severity [2] | mRNA expression levels of IL-17 in conjunctivae [3] | frequencies of MHC-II^hi CD11b^+ cells in the cornea [4] | frequencies of TH17 cells in the DLNs [4] | frequencies of mature MHC-II^hi CD11b^+ cells in the DLNs [4] | level of MHC-II expression by CD11b^+ cells in the DLNs [4] | further results
Cc1ccccc1N1CCN(CCc2nnc3n2CCCC3)CC1 [dapiprazole] |  |  |  |  |  |  | change in ORI score after induction ([1]; 5% dapiprazole, 40 μl topical, series of increasing concentrations, 1-hour observation, vs PBS): highest increase in ORI score
COc1ccccc1CN[C@H]1CCCN[C@H]1c1ccccc1 [CP-99,994, (2S,3S)-N-[(2-Methoxyphenyl)methyl]-2-phenyl-3-piperidinamine dihydrochloride] | significantly reduced CFS scores and DED severity | significant reduction | significantly lower | significantly decreased | significant decrease | significant decrease | 
C[C@@H](O[C@H]1OCCN(Cc2n[nH]c(=O)[nH]2)[C@H]1c1ccc(F)cc1)c1cc(C(F)(F)F)cc(C(F)(F)F)c1 [MK-869, 5-[[(2R,3S)-2-[(1R)-[3,5-Bis(trifluoromethyl)phenyl]ethoxy]-3-(4-fluorophenyl)-4-morpholinylinyl]methyl]-1,2-dihydro-3H-1,2,4-triazol-3-one] |  |  |  |  |  |  | water solubility [5]: Poor water solubility
Ic1ccccc1CN[C@@H]1C2CCN(CC2)[C@@H]1C(c1ccccc1)c1ccccc1 (racemic) [L-703,606] |  |  |  |  |  |  | ocular redness (change in ORI score) [6]: rapidly and consistently ameliorating the ocular redness; ocular redness (change in ORI score) ([1]; topical 1.0 mg/ml with 5% dapiprazole instillation, 40 μl, 1 hour, vs untreated induced control): rapidly and consistently ameliorating the ocular redness
FC(F)(F)c1cc(CO[C@H]2CCCN[C@H]2c2ccccc2)cc(C(F)(F)F)c1 [L-733,060, (2S,3S)-3-[[3,5-bis(Trifluoromethyl)phenyl]methoxy]-2-phenylpiperidine hydrochloride] | significantly reduced CFS scores and DED severity | significant reduction | significantly lower | significantly decreased | significant decrease | significant decrease | protective role of SP on epithelial healing [7]: significantly inhibits the protective role of SP on epithelial healing

Reference: patent publication US20220288028A1, “A THERAPEUTIC APPROACH FOR TREATING NON-INFECTIOUS OCULAR IMMUNOINFLAMMATORY DISORDERS” (The Schepens Eye Research Institute, Inc., priority 2019, published 2022)
